Experimental data taken from PubChem BioAssay (NCI).
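Five concentrations, 48 hours, 96-well plates. GI50 = concentration required for 50% inhibition of growth. TGI is the concentration that stops growth completely.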

Experiments:
Assay in all cases: NCI-60 cell line screen, 48 h
LOX IMVI melanoma = test system: LOX IMVI melanoma
UO-31 renal = test system: UO-31 renal
HS 578T breast = test system: HS 578T breast
SK-OV-3 ovarian = test system: SK-OV-3 ovarian
SK-MEL-5 melanoma = test system: SK-MEL-5 melanoma
UACC-257 melanoma = test system: UACC-257 melanoma
HOP-62 NSCLC = test system: HOP-62 NSCLC
HCT-116 colon = test system: HCT-116 colon
SN12C renal = test system: SN12C renal
U251 CNS = test system: U251 CNS

Row | Structure (SMILES) | GI50 (LOX IMVI melanoma) | TGI (LOX IMVI melanoma) | GI50 (UO-31 renal) | TGI (UO-31 renal) | GI50 (HS 578T breast) | TGI (HS 578T breast) | GI50 (SK-OV-3 ovarian) | TGI (SK-OV-3 ovarian) | GI50 (SK-MEL-5 melanoma) | TGI (SK-MEL-5 melanoma) | GI50 (UACC-257 melanoma) | TGI (UACC-257 melanoma) | GI50 (HOP-62 NSCLC) | TGI (HOP-62 NSCLC) | GI50 (HCT-116 colon) | TGI (HCT-116 colon) | GI50 (SN12C renal) | TGI (SN12C renal) | GI50 (U251 CNS) | TGI (U251 CNS)
1 | CCN(Cc1ccc(F)cc1)c1ccc(CO)c(F)c1 | 13.9 µM | 31.2 µM | 8.67 µM | 54.4 µM | 17.2 µM | > 75.5 µM | 15.9 µM | 80.7 µM | 10.9 µM | 24.2 µM | 2.33 µM | 9.29 µM | 15.2 µM | > 100 µM | 2.38 µM | 13.5 µM | 19.5 µM | 99.1 µM | 12.5 µM | > 63 µM
2 | CN[C@H](C#Cc1c(F)ccc2c1/C(=C/c1[nH]ccc1OC)C(=O)N2)CO | 0.344 µM | 2.54 µM | 0.335 µM | 2.54 µM | 0.212 µM | 12.9 µM | 0.117 µM | 8.12 µM | 0.511 µM | 1.92 µM | 1.52 µM | 4.93 µM | 0.628 µM | 2.42 µM | 0.136 µM | 5.21 µM | 0.2 µM | 25 µM | 0.323 µM | 2.94 µM
3 | COc1ccc(-c2nc(-c3ccccc3)c(-c3ccccc3)[nH]2)cc1OC1CCCC1 | 34.3 µM | > 100 µM | > 100 µM | > 100 µM | > 100 µM | > 100 µM | > 100 µM | > 100 µM | > 100 µM | > 100 µM | > 100 µM | > 100 µM | > 100 µM | > 100 µM | > 100 µM | > 100 µM | > 100 µM | > 100 µM | > 100 µM | > 100 µM
4 | c1cc2n(n1)CCN2 | – | 7690 µM | – | 9890 µM | – | > 5490 µM | – | > 7350 µM | – | > 7740 µM | – | > 10000 µM | – | > 9550 µM | – | > 10000 µM | – | 7050 µM | – | 5740 µM
5 | Cc1cc(NCCN(C(C)C)C(C)C)nc(/N=C(\N)Nc2ccc(Cl)c(C(F)(F)F)c2)n1 | 0.193 µM | 0.365 µM | 0.201 µM | 0.604 µM | 0.473 µM | 1.69 µM | 1.26 µM | 2.55 µM | 0.195 µM | 0.492 µM | 0.187 µM | 0.337 µM | 0.748 µM | 2 µM | 0.275 µM | 2.38 µM | 1.34 µM | 2.87 µM | 0.194 µM | 0.4 µM
6 | O=C(N/C(=C/c1ccc(Cl)cc1Cl)c1nc2ccccc2s1)c1ccccc1 | – | 18.7 µM | – | 29.9 µM | – | 44.3 µM | – | 79.3 µM | – | 26.4 µM | – | 31.6 µM | – | 26.7 µM | – | > 100 µM | – | 23 µM | – | 9.05 µM
7 | CCOC(=O)c1cc2c(n1Cc1cccc(OC)c1)-c1oncc1CCC2 | 2.93 µM | > 100 µM | 4.48 µM | > 100 µM | 1.6 µM | 24.8 µM | 3.48 µM | > 100 µM | 0.693 µM | 14.8 µM | 3.51 µM | > 100 µM | 3.54 µM | > 100 µM | 0.534 µM | > 100 µM | 6.46 µM | > 100 µM | 2.16 µM | > 100 µM
